Values joined by “and” are separate entries in the source; they are usually repeats but may differ in a detail not shown here. Equal entries are not always repeated.
Experiments:
[1] = Crystal; for vapor or sublimation pressure: Calculated from knudsen effusion weight loss; for Normal melting temperature: DTA
[2] = Molar enthalpy of transition or fusion; conditions: Crystal; DSC

O=C(O)c1cccc(O)c1O [2,3-dihydroxybenzoic acid]
[1]
Conditions | vapor or sublimation pressure
345.22 K | 0.000158 kPa and 0.000159 kPa and 0.000157 kPa
347.21 K | 0.000201 kPa and 0.000196 kPa and 0.000197 kPa
349.23 K | 0.00025 kPa and 0.000248 kPa and 0.000246 kPa
351.19 K | 0.000308 kPa and 0.00031 kPa
353.21 K | 0.00038 kPa and 0.000377 kPa
355.17 K | 0.000468 kPa and 0.000466 kPa
357.2 K | 0.000569 kPa and 0.000565 kPa and 0.000564 kPa
359.2 K | 0.000716 kPa and 0.000708 kPa and 0.000711 kPa
361.21 K | 0.000867 kPa and 0.000857 kPa and 0.000861 kPa
363.18 K | 0.001039 kPa and 0.001029 kPa

Conditions | Molar enthalpy of transition or fusion [kcal/mol] | Normal melting temperature [°C]
[1] | – | 203.2
[2] | 7.62 | –

O=C(O)c1ccc(O)cc1O [2,4-dihydroxybenzoic acid]
[1]
Conditions | vapor or sublimation pressure
376.22 K | 0.000198 kPa and 0.000192 kPa and 0.000195 kPa
377.32 K | 0.000224 kPa and 0.000217 kPa and 0.00022 kPa
379.13 K | 0.000269 kPa and 0.00026 kPa and 0.000264 kPa
381.15 K | 0.000315 kPa and 0.000319 kPa and 0.000332 kPa
383.13 K | 0.000399 kPa and 0.000388 kPa and 0.00039 kPa
385.12 K | 0.000501 kPa and 0.000489 kPa and 0.000493 kPa
387.17 K | 0.000613 kPa and 0.000591 kPa and 0.000593 kPa
389.35 K | 0.000762 kPa and 0.000732 kPa and 0.000741 kPa
391.3 K | 0.000916 kPa and 0.000884 kPa and 0.000893 kPa
392.11 K | 0.000988 kPa and 0.000961 kPa and 0.000955 kPa

O=C(O)c1cc(O)ccc1O [2,5-dihydroxybenzoic acid]
[1]
Conditions | vapor or sublimation pressure
372.14 K | 0.00015 kPa and 0.000146 kPa and 0.000145 kPa
374.13 K | 0.000192 kPa and 0.000182 kPa and 0.000183 kPa
376.19 K | 0.000231 kPa and 0.000221 kPa
378.15 K | 0.000287 kPa and 0.000299 kPa and 0.000285 kPa
380.3 K | 0.000373 kPa and 0.000356 kPa and 0.000364 kPa
382.22 K | 0.00045 kPa
384.7 K | 0.000572 kPa and 0.000574 kPa
386.12 K | 0.000663 kPa and 0.000649 kPa
388.92 K | 0.000905 kPa and 0.000871 kPa and 0.000866 kPa

Conditions | Molar enthalpy of transition or fusion [kcal/mol] | Normal melting temperature [°C]
[1] | – | 203.1
[2] | 4.97 | –

O=C(O)c1c(O)cccc1O [2,6-dihydroxybenzoic acid]
[1]
Conditions | vapor or sublimation pressure
347.14 K | 0.000138 kPa and 0.000131 kPa and 0.000133 kPa
349.32 K | 0.000171 kPa and 0.000173 kPa
351.02 K | 0.000204 kPa and 0.000208 kPa
353.26 K | 0.000255 kPa and 0.000249 kPa
355.35 K | 0.000323 kPa and 0.000336 kPa
357.2 K | 0.000401 kPa and 0.000391 kPa and 0.000386 kPa
359.28 K | 0.000491 kPa and 0.000477 kPa and 0.000479 kPa
361.38 K | 0.000609 kPa and 0.00059 kPa and 0.000586 kPa
363.19 K | 0.000713 kPa and 0.000692 kPa and 0.000679 kPa
365.17 K | 0.000881 kPa and 0.000845 kPa and 0.000834 kPa

O=C(O)c1ccc(O)c(O)c1 [3,4-dihydroxybenzoic acid]
[1]
Conditions | vapor or sublimation pressure
387.12 K | 8.9e-05 kPa and 8.7e-05 kPa and 8.6e-05 kPa
391.31 K | 0.000132 kPa and 0.000133 kPa
393.33 K | 0.000166 kPa and 0.000164 kPa and 0.000165 kPa
395.2 K | 0.0002 kPa and 0.000202 kPa and 0.000201 kPa
397.32 K | 0.000249 kPa and 0.000253 kPa and 0.00025 kPa
401.25 K | 0.000367 kPa and 0.000365 kPa
403.26 K | 0.000451 kPa and 0.000452 kPa and 0.00045 kPa

O=C(O)c1cc(O)cc(O)c1 [3,5-dihydroxybenzoic acid]
[1]
Conditions | vapor or sublimation pressure
407.36 K | 9.8e-05 kPa and 9.7e-05 kPa
410.25 K | 0.00013 kPa and 0.000129 kPa
413.16 K | 0.000176 kPa and 0.000179 kPa and 0.000175 kPa
416.13 K | 0.000237 kPa and 0.000234 kPa and 0.000238 kPa
419.21 K | 0.000305 kPa and 0.00031 kPa and 0.000311 kPa
422.2 K | 0.000407 kPa and 0.000409 kPa and 0.000412 kPa
425.23 K | 0.000561 kPa and 0.000563 kPa

Conditions | Molar enthalpy of transition or fusion [kcal/mol] | Normal melting temperature [°C]
[1] | – | 235.2
[2] | 9.15 | –

Source: the NIST ThermoML archive (doi:10.1021/je900777q)
